The subject of the test is TGFβ activated genes. Put plainly: TGF-β osmotic pump mouse skin model, gene expression by nanostring. It is filed as in vivo, C57BL/6 mice. The arrangement: key to Adam12 expression, TGFb/TGFbimatinib / spp1 expression, TGFb/TGFbimatinib / Thbs1 expression, TGFb/TGFbimatinib / Col1a1 expression, TGFb/TGFbimatinib / Sfrp2 expression, TGFb/TGFbimatinib / acta2 expression, TGFb/TGFbimatinib / Angpt2 expression, TGFb/TGFbimatinib / lox expression, TGFb/TGFbimatinib / Fmod expression, TGFb/TGFbimatinib / Wisp1 expression, TGFb/TGFbimatinib / serpine1 expression, TGFb/TGFbimatinib: TGFβ treatment works and the effect is blocked by imatinib in the local skin (+); DS+ skin (−). The note with it: for serpine1 expression, TGFb/TGFbimatinib / Adam12 expression, TGFb/TGFbimatinib / spp1 expression, TGFb/TGFbimatinib / Thbs1 expression, TGFb/TGFbimatinib / Col1a1 expression, TGFb/TGFbimatinib / Sfrp2 expression, TGFb/TGFbimatinib / acta2 expression, TGFb/TGFbimatinib / Angpt2 expression, TGFb/TGFbimatinib / lox expression, TGFb/TGFbimatinib / Fmod expression, TGFb/TGFbimatinib / Wisp1 expression, TGFb/TGFbimatinib: imatinib cream topical 2 times per day, 7 days; for serpine1 expression, TGFb/TGFbimatinib: FIG. 3; for Adam12 expression, TGFb/TGFbimatinib: FIG. 4; for spp1 expression, TGFb/TGFbimatinib: FIG. 5; for Thbs1 expression, TGFb/TGFbimatinib: FIG. 6; for Col1a1 expression, TGFb/TGFbimatinib: FIG. 7; for Sfrp2 expression, TGFb/TGFbimatinib: FIG. 8; for acta2 expression, TGFb/TGFbimatinib: FIG. 9; for Angpt2 expression, TGFb/TGFbimatinib: FIG. 10; for lox expression, TGFb/TGFbimatinib: FIG. 11; for Fmod expression, TGFb/TGFbimatinib: FIG. 12; for Wisp1 expression, TGFb/TGFbimatinib: FIG. 13. On the procedure:
C57BL/6 mice were obtained from The Jackson Laboratory (Bar Harbor, Me.). Osmotic pumps (Alzet, model 2001) designed to deliver 1 μL/h were loaded with TGF-β (1.25 μg) in phosphate buffered saline (PBS) supplemented with 0.1 mg/mL bovine serum albumin (BSA). Pumps were implanted subcutaneously in 8-week-old mice, who were subsequently treated with imatinib or placebo cream. After […], mice were sacrificed, and the skin (˜1 cm^2) surrounding the pump outlet was homogenized in TRIzol (Invitrogen) for preparation of RNA, or fixed in formalin. Skin from mice treated with PBS and TGF-β was analyzed using nanostring technology. A set of 50 genes including inflammatory genes, macrophages markers, TGF-β-regulated genes, and others were analyzed. 100 ng of RNA per sample was used and gene expression was normalized to the expression of 8 housekeeping-genes.
TGFb 2.5 μg/mL in 7 day Alzet pump.
imatinib cream topical application 7 days (2 times per day)
(3) −DS=Far from local skin

For the molecule `Cc1ccc(NC(=O)c2ccc(CN3CCN(C)CC3)cc2)cc1Nc1nccc(-c2cccnc2)n1` [imatinib], where the note is “DS+ (near local skin)”, the “serpine1 expression, TGFb/TGFbimatinib” value is “(−)”; the “Adam12 expression, TGFb/TGFbimatinib” value is on record as “(−)”; the “spp1 expression, TGFb/TGFbimatinib” value was “(−)”; the “Thbs1 expression, TGFb/TGFbimatinib” value is reported as “(−)”. For the same molecule, under “DS+ (near local skin)”, the “Col1a1 expression, TGFb/TGFbimatinib” value is given as “(−)”; the “Sfrp2 expression, TGFb/TGFbimatinib” value is recorded as “(−)”; the “acta2 expression, TGFb/TGFbimatinib” value is “(−)”; the “Angpt2 expression, TGFb/TGFbimatinib” value is given as “(−)”. In addition, under “DS+ (near local skin)”, the “lox expression, TGFb/TGFbimatinib” value is reported as “(−)”; the “Fmod expression, TGFb/TGFbimatinib” value is “(−)”; the “Wisp1 expression, TGFb/TGFbimatinib” value was “(−)”. For the same molecule, for the setting “LS (local skin)”, the “serpine1 expression, TGFb/TGFbimatinib” value was “(+)”; the “Adam12 expression, TGFb/TGFbimatinib” value is listed as “(+)”; the “spp1 expression, TGFb/TGFbimatinib” value is on record as “(+)”; the “Thbs1 expression, TGFb/TGFbimatinib” value is on record as “(+?)”. For the setting “LS (local skin)”, the “Col1a1 expression, TGFb/TGFbimatinib” value is listed as “(+)”; the “Sfrp2 expression, TGFb/TGFbimatinib” value is reported as “(+)”; the “acta2 expression, TGFb/TGFbimatinib” value is “(+)”; the “Angpt2 expression, TGFb/TGFbimatinib” value is “(+)”. Besides, for the setting “LS (local skin)”, the “lox expression, TGFb/TGFbimatinib” value was “(+)”; the “Fmod expression, TGFb/TGFbimatinib” value is listed as “(+)”; the “Wisp1 expression, TGFb/TGFbimatinib” value was “(+)”. In addition, under “local skin (+) and DS+ skin (−), topical imatinib cream”, the “effect of TGFβ treatment in skin” value was “blocked”. Also, where the note is “mouse skin, topical imatinib cream”, the “activation of TGFβ activated genes” value is “inhibits the activation of these genes”.

(Values after patent US20160120865A1, “TOPICAL TREATMENT OF LOCALIZED SCLERODERMA” (PRECISION DERMATOLOGY, INC., priority 2013, published 2016).)
